For one test, the target named is T1, AuroraA-TPX2 (Homo sapiens, UniProt O14965).
T1 construct: 20 µL of AuroraA-TPX2 KD GST; GST
T1 sequence (O14965 133-383 limits assumed): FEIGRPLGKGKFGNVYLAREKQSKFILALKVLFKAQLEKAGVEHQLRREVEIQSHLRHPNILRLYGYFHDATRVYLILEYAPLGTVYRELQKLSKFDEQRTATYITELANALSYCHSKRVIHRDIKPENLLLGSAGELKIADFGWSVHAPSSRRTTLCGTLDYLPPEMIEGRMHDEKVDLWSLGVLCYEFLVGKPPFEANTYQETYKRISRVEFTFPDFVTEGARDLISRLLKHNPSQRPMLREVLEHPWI
T1 sequence (Q9ULW0 1-43 partner limits assumed): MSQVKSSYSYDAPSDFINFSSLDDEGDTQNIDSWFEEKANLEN
The test can be described thus: AuroraA-TPX2 Homogeneous Time Resolved Fluorescent (HTRF) kinase assay. It counts as biochemical. The conditions noted are these: average, read-out: AurA/TP X2_ IC50_IP (Avg). In outline:
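Aurora-A/TPX2 phosphorylates biotinylated PLK peptide (about 1 µM) with ATP for about 120 min in 60 mM HEPES pH 7.5, 10 mM MgCl2, 2 mM DTT. EDTA quench, overnight equilibration with Eu-anti-phosphoPLK antibody and SA-APC; HTRF read at 615/655 nm after 320 nm excitation.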

A further test addresses T2, AuroraB (Homo sapiens, UniProt Q96GD4).
T2 construct: 20 µL of AuroraB FL His; His
Nature of the test: AuroraB Homogeneous Time Resolved Fluorescent (HTRF) kinase assay. As to conditions: average, read-out: AurB_ _IC50_IP (Avg). It counts as biochemical. In short, it runs like this: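 Full-length His-tagged AuroraB (400 pM) phosphorylates 0.1 µM biotinylated Histone H3 with 23 µM ATP (Km(app)) in HEPES pH 7.5 with Mg/Mn, about 90 min. EDTA-quenched; Eu-anti-phosphoHistoneH3 and SA-APC HTRF, 655/615 nm ratio as phosphorylation.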
For orientation: Time-resolved FRET reads energy transfer from a long-lived donor to a nearby acceptor.

Setting [1] is: given as numbers, unit inferred.

Each structure is given as a SMILES string. Where two headings read alike, the source gives them in different places.

T2 sequence (Q96GD4 whole entry): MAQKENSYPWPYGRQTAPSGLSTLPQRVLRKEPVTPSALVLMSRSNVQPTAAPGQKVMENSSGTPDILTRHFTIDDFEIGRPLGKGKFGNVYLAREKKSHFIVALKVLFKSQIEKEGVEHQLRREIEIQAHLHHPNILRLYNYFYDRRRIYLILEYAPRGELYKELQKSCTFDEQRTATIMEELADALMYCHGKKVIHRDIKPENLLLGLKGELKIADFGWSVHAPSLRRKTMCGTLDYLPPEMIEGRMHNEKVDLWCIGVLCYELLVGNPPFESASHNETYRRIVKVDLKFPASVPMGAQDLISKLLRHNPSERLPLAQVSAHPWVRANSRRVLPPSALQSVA

In the case of `CC(C)(O)c1cccc(-c2nnc(Nc3ccc(Oc4ncccc4-c4ccnc(N)n4)cc3)c3ccccc23)c1` [compound 357, 2-(3-(4-((4-((3-(2-amino-4-pyrimidinyl)-2-pyridinyl)oxy)phenyl)amino)-1-phthalazinyl)phenyl)-2-propanol], the IC50 at AuroraA-TPX2 (given as class symbols) and at AuroraB (given as class symbols) was not above 100 nM in each case.

Take `Nc1nccc(-c2cccnc2Oc2ccc(Nc3nnc(N4CCC(O)CC4)c4ccccc34)cc2)n1` [compound 358, 1-(4-((4-((3-(2-amino-4-pyrimidinyl)-2-pyridinyl)oxy)phenyl)amino)-1-phthalazinyl)-4-piperidinol]: the IC50 on AuroraA-TPX2 (given as class symbols) is 500 to 2500 nM; at AuroraB (given as class symbols) it was not above 100 nM.

Take `Cc1csc(-c2nnc(Nc3ccc(Oc4ncccc4-c4ccnc(NCCCO)n4)cc3)c3ccccc23)n1` [compound 359, 3-((4-(2-((4-((4-(4-methyl-1,3-thiazol-2-yl)-1-phthalazinyl)amino)phenyl)oxy)-3-pyridinyl)-2-pyrimidinyl)amino)-1-propanol]: the IC50 on AuroraA-TPX2 (given as class symbols) and on AuroraB (given as class symbols) was not above 100 nM each time.

Regarding `C[C@H](O)c1cccc(-c2nnc(Nc3ccc(Oc4ncccc4-c4ccnc(N)n4)cc3)c3ccccc23)c1` [compound 360, (1S)-1-(3-(4-((4-((3-(2-amino-4-pyrimidinyl)-2-pyridinyl)oxy)phenyl)amino)-1-phthalazinyl)phenyl)ethanol], the IC50 at AuroraA-TPX2 (given as class symbols) and on AuroraB (given as class symbols) was not above 100 nM throughout.

For the molecule `C[C@@H](O)c1cccc(-c2nnc(Nc3ccc(Oc4ncccc4-c4ccnc(N)n4)cc3)c3ccccc23)c1` [compound 361, (1R)-1-(3-(4-((4-((3-(2-amino-4-pyrimidinyl)-2-pyridinyl)oxy)phenyl)amino)-1-phthalazinyl)phenyl)ethanol], the IC50 on AuroraA-TPX2 (given as class symbols) and on AuroraB (given as class symbols) was not above 100 nM in each case.

With `Nc1nccc(-c2cccnc2Oc2ccc(Nc3nnc(-c4cccc(CCCOP(=O)(O)O)c4)c4ccccc34)cc2)n1` [compound 362, 3-(3-(4-((4-((3-(2-amino-4-pyrimidinyl)-2-pyridinyl)oxy)phenyl)amino)-1-phthalazinyl)phenyl)propyl dihydrogen phosphate], the IC50 at AuroraA-TPX2 (given as class symbols) and at AuroraB (given as class symbols) was not above 100 nM in each case.

Turning to `Nc1nccc(-c2cccnc2Oc2ccc(Nc3nnc(-c4cccc(O)c4)c4ccccc34)cn2)n1` [compound 363, 3-(4-((6-((3-(2-amino-4-pyrimidinyl)-2-pyridinyl)oxy)-3-pyridinyl)amino)-1-phthalazinyl)phenol], the IC50 on AuroraA-TPX2 (given as class symbols) and at AuroraB (given as class symbols) was not above 100 nM throughout.

With `Nc1nccc(-c2cccnc2Oc2ccc(Nc3nnc(-c4ccccc4O)c4ccccc34)cc2)n1` [compound 364, 2-(4-((4-((3-(2-amino-4-pyrimidinyl)-2-pyridinyl)oxy)phenyl)amino)-1-phthalazinyl)phenol], the values for the IC50 at AuroraA-TPX2 (given as class symbols) and on AuroraB (given as class symbols) were 100 to 500 nM and not above 100 nM, respectively.

As to `Nc1nccc(-c2cccnc2Oc2ccc(Nc3nnc(-c4ccccc4O)c4ccccc34)cn2)n1` [compound 365, 2-(4-((6-((3-(2-amino-4-pyrimidinyl)-2-pyridinyl)oxy)-3-pyridinyl)amino)-1-phthalazinyl)phenol], the IC50 at AuroraA-TPX2 (setting [1]) stood at 27.6 nM; on AuroraB (setting [1]), 11.3 nM.

With `Nc1nccc(-c2cccnc2Oc2ccc(Nc3nnc(-c4cccc(OP(=O)(O)O)c4)c4ccccc34)cc2)n1` [compound 366, 3-(4-((4-((3-(2-amino-4-pyrimidinyl)-2-pyridinyl)oxy)phenyl)amino)-1-phthalazinyl)phenyl dihydrogen phosphate], the IC50 at AuroraA-TPX2 (given as class symbols) and at AuroraB (given as class symbols) was 100 to 500 nM in each case.

Take `OCCCNc1nccc(-c2cccnc2Oc2ccc(Nc3nnc(-c4ccccc4)c4ccccc34)cn2)n1` [compound 367, 3-((4-(2-((5-((4-phenyl-1-phthalazinyl)amino)-2-pyridinyl)oxy)-3-pyridinyl)-2-pyrimidinyl)amino)-1-propanol]: the IC50 on AuroraA-TPX2 (given as class symbols) and at AuroraB (given as class symbols) was not above 100 nM in each case.

As for `Nc1nccc(-c2cccnc2Oc2ccc(Nc3nnc(-c4ccccc4OP(=O)(O)O)c4ccccc34)cc2)n1` [compound 368, 2-(4-((4-((3-(2-amino-4-pyrimidinyl)-2-pyridinyl)oxy)phenyl)amino)-1-phthalazinyl)phenyl dihydrogen phosphate], the IC50 on AuroraA-TPX2 (given as class symbols) and at AuroraB (given as class symbols) was 500 to 2500 nM throughout.

Consider `C[C@H](O)c1cccc(-c2nnc(Nc3ccc(Oc4ncccc4-c4ccnc(N)n4)nc3)c3ccccc23)c1` [compound 369, (1S)-1-(3-(4-((6-((3-(2-amino-4-pyrimidinyl)-2-pyridinyl)oxy)-3-pyridinyl)amino)-1-phthalazinyl)phenyl)ethanol], for which the IC50 on AuroraA-TPX2 (given as class symbols) and at AuroraB (given as class symbols) was not above 100 nM in each case.

For `Cc1cc(-c2cccc(CO)c2)nnc1Nc1ccc(Oc2ncccc2-c2ccnc(N)n2)cc1` [compound 370, (3-(6-((4-((3-(2-amino-4-pyrimidinyl)-2-pyridinyl)oxy)phenyl)amino)-5-methyl-3-pyridazinyl)phenyl)methanol], the IC50 on AuroraA-TPX2 (given as class symbols) and at AuroraB (given as class symbols) was not above 100 nM in each case.

For the molecule `Nc1cc(-c2cccnc2Oc2ccc(Nc3nnc(-c4ccccc4O)c4ccccc34)cc2)ccn1` [compound 371, 2-(4-((4-((2'-amino-3,4'-bipyridin-2-yl)oxy)phenyl)amino)-1-phthalazinyl)phenol], the values for the IC50 at AuroraA-TPX2 (given as class symbols) and at AuroraB (given as class symbols) were 100 to 500 nM and not above 100 nM, respectively.

Consider `COc1ccc(F)c(-c2nnc(Nc3ccc(Oc4ncccc4-c4ccnc(N)n4)cc3)c3ccccc23)c1` [compound 372, N-(4-((3-(2-amino-4-pyrimidinyl)-2-pyridinyl)oxy)phenyl)-4-(2-fluoro-5-(methyloxy)phenyl)-1-phthalazinamine], for which the IC50 at AuroraA-TPX2 (given as class symbols) and on AuroraB (given as class symbols) was not above 100 nM each time.

Consider `Nc1nccc(-c2cccnc2Oc2ccc(Nc3nnc(-c4cc(O)ccc4F)c4ccccc34)cc2)n1` [compound 373, 3-(4-((4-((3-(2-amino-4-pyrimidinyl)-2-pyridinyl)oxy)phenyl)amino)-1-phthalazinyl)-4-fluorophenol], for which the IC50 at AuroraA-TPX2 (given as class symbols) and on AuroraB (given as class symbols) was not above 100 nM each time.

In the case of `CN(C)CCCOc1cccc(-c2nnc(Nc3ccc(Oc4ncccc4-c4ccnc(N)n4)cc3)c3ccccc23)c1` [compound 374, N-(4-((3-(2-amino-4-pyrimidinyl)-2-pyridinyl)oxy)phenyl)-4-(3-((3-(dimethylamino)propyl)oxy)phenyl)-1-phthalazinamine], the IC50 at AuroraA-TPX2 (given as class symbols) and on AuroraB (given as class symbols) was not above 100 nM throughout.

With `Nc1nccc(-c2cccnc2Oc2ccc(Nc3nnc(-c4cccc(CO)c4)c4ccccc34)cn2)n1` [compound 375, (3-(4-((6-((3-(2-amino-4-pyrimidinyl)-2-pyridinyl)oxy)-3-pyridinyl)amino)-1-phthalazinyl)phenyl)methanol], the IC50 at AuroraA-TPX2 (given as class symbols) and on AuroraB (given as class symbols) was not above 100 nM in each case.

For `COc1ccc(F)c(-c2nnc(Nc3ccc(Oc4ncccc4-c4ccnc(N)n4)nc3)c3ccccc23)c1` [compound 376, N-(6-((3-(2-amino-4-pyrimidinyl)-2-pyridinyl)oxy)-3-pyridinyl)-4-(2-fluoro-5-(methyloxy)phenyl)-1-phthalazinamine], the IC50 at AuroraA-TPX2 (given as class symbols) and on AuroraB (given as class symbols) was not above 100 nM in each case.

On to `Nc1nccc(-c2cccnc2Oc2ccc(Nc3nnc(-c4cccc(OC(F)(F)F)c4)c4ccccc34)cc2)n1` [compound 377, N-(4-((3-(2-amino-4-pyrimidinyl)-2-pyridinyl)oxy)phenyl)-4-(3-((trifluoromethyl)oxy)phenyl)-1-phthalazinamine], for which the IC50 on AuroraA-TPX2 (given as class symbols) and on AuroraB (given as class symbols) was not above 100 nM throughout.

Turning to `Nc1nccc(-c2cccnc2Oc2ccc(Nc3nnc(-c4cccc(OC(F)(F)F)c4)c4ccccc34)cn2)n1` [compound 378, N-(6-((3-(2-amino-4-pyrimidinyl)-2-pyridinyl)oxy)-3-pyridinyl)-4-(3-((trifluoromethyl)oxy)phenyl)-1-phthalazinamine], the IC50 at AuroraA-TPX2 (given as class symbols) and on AuroraB (given as class symbols) was not above 100 nM in each case.

As to `Nc1nccc(-c2cccnc2Oc2ccc(Nc3nnc(-c4cc(O)ccc4F)c4ccccc34)cn2)n1` [compound 379, 3-(4-((6-((3-(2-amino-4-pyrimidinyl)-2-pyridinyl)oxy)-3-pyridinyl)amino)-1-phthalazinyl)-4-fluorophenol], the IC50 on AuroraA-TPX2 (given as class symbols) and at AuroraB (given as class symbols) was not above 100 nM in each case.

For the molecule `COc1ccc(F)cc1-c1nnc(Nc2ccc(Oc3ncccc3-c3ccnc(N)n3)cc2)c2ccccc12` [compound 380, N-(4-((3-(2-amino-4-pyrimidinyl)-2-pyridinyl)oxy)phenyl)-4-(5-fluoro-2-(methyloxy)phenyl)-1-phthalazinamine], the IC50 on AuroraA-TPX2 (given as class symbols) and on AuroraB (given as class symbols) was not above 100 nM in each case.

Take `COc1ccc(F)cc1-c1nnc(Nc2ccc(Oc3ncccc3-c3ccnc(N)n3)nc2)c2ccccc12` [compound 381, N-(6-((3-(2-amino-4-pyrimidinyl)-2-pyridinyl)oxy)-3-pyridinyl)-4-(5-fluoro-2-(methyloxy)phenyl)-1-phthalazinamine]: the IC50 at AuroraA-TPX2 (given as class symbols) is 100 to 500 nM; on AuroraB (given as class symbols) it was not above 100 nM.
